Assay [1] has as its target T1, hSERT (Homo sapiens, UniProt P31645). As to the kind of experiment: hSERT membrane radioligand binding assay (3H-citalopram), Assay 1. The following applies: SERT pKi, hSERT HEK-293 membranes, 1.0 nM 3H-citalopram; values given as lower bounds.
Description: Membrane radioligand binding assays were used to measure inhibition of labeled ligand (^3H-citalopram or ^3H-nisoxetine or ^3H-WIN35428) binding to membranes prepared from cells expressing the respective human recombinant transporter (hSERT or hNET or hDAT) in order to determine the pKi values of test compounds at the transporters.
Recombinant human embryonic kidney (HEK-293) derived cell lines stably transfected with hSERT or hNET, respectively, were grown in DMEM medium supplemented with 10% dialyzed FBS (for hSERT) or FBS (for hNET), 100 μg/mL penicillin, 100 μg/mL streptomycin, 2 mM L-glutamine and 250 μg/mL of the aminoglycoside antibiotic G418, in a 5% CO2 humidified incubator at 37° C. When cultures reached 80% confluence, the cells were washed thoroughly in PBS (without Ca^2+ and Mg^2+) and lifted with 5 mM EDTA in PBS. Cells were pelleted by centrifugation, resuspended in lysis buffer (10 mM Tris-HCl, pH7.5 containing 1 mM EDTA), homogenized, pelleted by centrifugation, then resuspended in 50 mM Tris-HCl, pH 7.5 and 10% sucrose at 4° C. Protein concentration of the membrane suspension was determined using a Bio-Rad Bradford Protein Assay kit. Membranes were snap frozen and stored at −80° C.
Binding assays were performed in a 96-well assay plate in a total volume of 200 μl assay buffer (50 mM Tris-HCl, 120 mM NaCl, 5 mM KCl, pH 7.4) with 0.5, 1, and 3 μg membrane protein, for SERT, NET and DAT, respectively.
Stock solutions (10 mM in DMSO) of test compound were prepared and serial dilutions made using Dilution Buffer (50 mM Tris-HCl, 120 mM NaCl, 5 mM KCl, pH 7.4, 0.1% BSA, 400 μM ascorbic acid).
Following a 60 minute incubation at 22° C. (or a period sufficient to reach equilibrium), the membranes were harvested by rapid filtration over a 96-well UniFilter GF/B plate, pretreated with 0.3% polyethyleneimine, and washed 6 times with 300 μl wash buffer (50 mM Tris-HCl, 0.9% NaCl, pH 7.5 at 4° C.). Plates were dried overnight at room temperature, approximately 45 μl of MicroScint™-20 (Perkin Elmer) added and bound radioactivity quantitated via liquid scintillation spectroscopy. Inhibition curves and saturation isotherms were analyzed using GraphPad Prism Software package (GraphPad Software, Inc., San Diego, Calif.). IC50 values were generated from concentration response curves using the Sigmoidal Dose Response (variable slope) algorithm in Prism GraphPad.
In assay [2] the target is T2, hNET (Homo sapiens, UniProt P23975). As to the kind of experiment: hNET neurotransmitter uptake assay (3H-NE), Assay 2. The assay is classed as cell-based. The arrangement: expressed in transfected cells; host or cells: HEK-293. The following applies: norepinephrine reuptake inhibition, 3H-NE uptake, HEK-293 hNET cells (values without asterisk); read-out: NET pIC50 (converted).
T2 sequence (P23975 whole entry): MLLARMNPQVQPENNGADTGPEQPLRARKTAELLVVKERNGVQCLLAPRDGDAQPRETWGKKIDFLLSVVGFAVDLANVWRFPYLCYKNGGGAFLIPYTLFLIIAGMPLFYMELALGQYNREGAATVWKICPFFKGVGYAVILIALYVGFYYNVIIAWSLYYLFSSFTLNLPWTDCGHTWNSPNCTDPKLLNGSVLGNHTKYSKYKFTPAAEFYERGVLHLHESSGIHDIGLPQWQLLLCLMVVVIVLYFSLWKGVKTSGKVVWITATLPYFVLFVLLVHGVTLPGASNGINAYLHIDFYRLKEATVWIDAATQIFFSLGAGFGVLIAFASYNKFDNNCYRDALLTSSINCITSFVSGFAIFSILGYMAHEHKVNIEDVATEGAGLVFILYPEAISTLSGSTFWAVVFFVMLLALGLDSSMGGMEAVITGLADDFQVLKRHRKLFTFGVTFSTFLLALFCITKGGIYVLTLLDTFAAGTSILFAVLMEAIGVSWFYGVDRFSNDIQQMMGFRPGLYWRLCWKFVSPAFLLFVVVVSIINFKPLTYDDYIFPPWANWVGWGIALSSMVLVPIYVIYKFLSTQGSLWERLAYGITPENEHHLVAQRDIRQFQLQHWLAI

The target in assay [3] is T1, hSERT. The experiment in a line: hSERT neurotransmitter uptake assay (3H-5-HT), Assay 2. On the set-up: expressed in transfected cells; host or cells: HEK-293. The following applies: serotonin reuptake inhibition, 3H-5-HT uptake, HEK-293 hSERT cells (values without asterisk); read-out: SERT pIC50 (converted). The assay is classed as cell-based.
Assay [4] deals with T2, hNET. The experiment in a line: hNET membrane radioligand binding assay (3H-nisoxetine), Assay 1.

SMILES strings stand for the structures.

The Ki is the equilibrium dissociation constant of an inhibitor or competing ligand from its target. Higher therefore signals a looser hold on the target.

T1 sequence (P31645 whole entry): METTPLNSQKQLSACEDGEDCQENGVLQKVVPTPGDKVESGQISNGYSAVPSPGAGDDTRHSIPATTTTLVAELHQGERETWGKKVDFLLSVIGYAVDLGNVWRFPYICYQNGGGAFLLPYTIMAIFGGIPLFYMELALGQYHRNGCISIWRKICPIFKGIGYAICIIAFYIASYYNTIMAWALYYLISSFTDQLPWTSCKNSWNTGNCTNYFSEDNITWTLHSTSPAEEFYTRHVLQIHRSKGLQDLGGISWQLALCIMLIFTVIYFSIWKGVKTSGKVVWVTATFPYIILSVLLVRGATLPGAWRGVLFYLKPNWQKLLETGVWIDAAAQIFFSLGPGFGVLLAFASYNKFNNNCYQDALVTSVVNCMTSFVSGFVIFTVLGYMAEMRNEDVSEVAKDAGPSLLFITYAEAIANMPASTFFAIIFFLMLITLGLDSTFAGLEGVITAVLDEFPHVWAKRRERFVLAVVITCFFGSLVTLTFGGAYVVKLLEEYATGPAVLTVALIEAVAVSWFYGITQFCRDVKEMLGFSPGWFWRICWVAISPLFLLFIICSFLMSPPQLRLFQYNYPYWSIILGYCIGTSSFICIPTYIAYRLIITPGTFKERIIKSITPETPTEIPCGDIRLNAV

Regarding `CC(C)C[C@H](Oc1cccc(Cl)c1C(F)(F)F)[C@H]1CCNC1` [Example 10-36, (S)-3-[(S)-1-(3-Chloro-2-trifluoromethylphenoxy)-3-methylbutyl]pyrrolidine], the Ki on hSERT [1] and on hNET [4] was at most 10 nM in each case. The IC50 on hNET [2] and on hSERT [3] was at most 10 nM in each case.
On to `CC(C)C[C@@H](Oc1cc(Cl)cc(Cl)c1)[C@H]1CCNC1` [Example 10-79, (S)-3-[(R)-1-(3,5-Dichlorophenoxy)-3-methylbutyl]pyrrolidine], for which the inhibition constant (Ki) at hSERT [1] and at hNET [4] was at most 10 nM in each case. Also, the IC50 on hNET [2] and on hSERT [3] was at most 10 nM in each case.
As to `CC[C@@H](Oc1cccc(Cl)c1C(F)(F)F)[C@@H]1CCNC1` [Example 2-72, (R)-3-[(R)-1-(3-Chloro-2-trifluoromethylphenoxy)propyl]pyrrolidine], the Ki at hSERT [1] and on hNET [4] was at most 10 nM in each case. Moreover, the IC50 at hNET [2] and at hSERT [3] was at most 100 nM throughout.
As for `CCC[C@H](Oc1ccccc1Cl)[C@H]1CCNC1` [Example 4-19, (S)-3-[(S)-1-(2-Chlorophenoxy)butyl]pyrrolidine], the Ki at hSERT [1] and on hNET [4] was at most 10 nM in each case. Further, the IC50 was at most 10 nM on hNET [2] and at most 100 nM on hSERT [3].
Consider `CC[C@@H](Oc1ccc(Cl)cc1C)[C@@H]1CCNC1` [Example 2-60, (R)-3-[(R)-1-(4-Chloro-2-methylphenoxy)propyl]pyrrolidine], for which the results for the inhibition constant (Ki) on hSERT [1] and at hNET [4] were at most 10 nM and at most 100 nM, respectively. The IC50 on hNET [2] and on hSERT [3] was at most 100 nM each time.
Regarding `CC(C)[C@H](Oc1cccc(F)c1Cl)[C@H]1CCNC1` [Example 6-17, (S)-3-[(S)-1-(2-Chloro-3-fluorophenoxy)-2-methylpropyl]pyrrolidine], the Ki at hSERT [1] and on hNET [4] was at most 10 nM each time. The IC50 at hNET [2] and at hSERT [3] was at most 10 nM throughout.
In the case of `CCC[C@H](Oc1c(Cl)cccc1Cl)[C@H]1CCNC1` [Example 4-33, (S)-3-[(S)-1-(2,6-Dichlorophenoxy)butyl]pyrrolidine], the Ki on hSERT [1] and on hNET [4] was at most 10 nM throughout. Moreover, the IC50 was at most 10 nM at hNET [2] and at most 100 nM at hSERT [3].
For `CC(C)C[C@H](Oc1c(F)c(F)cc(F)c1Cl)[C@H]1CCNC1` [Example 10-86, (S)-3-[(S)-1-(2-Chloro-3,5,6-trifluorophenoxy)-3-methylbutyl]pyrrolidine], the Ki on hSERT [1] and at hNET [4] was at most 10 nM in each case. Moreover, the IC50 on hNET [2] and on hSERT [3] was at most 10 nM in each case.
For the molecule `CCC[C@H](Oc1ccc(F)cc1Cl)[C@H]1CCNC1` [Example 4-32, (S)-3-[(S)-1-(2-Chloro-4-fluorophenoxy)butyl]pyrrolidine], the Ki at hSERT [1] and at hNET [4] was at most 10 nM in each case. The IC50 at hNET [2] and at hSERT [3] was at most 10 nM each time.
Consider `Cc1ccc(O[C@@H](C2CC2)[C@H]2CCNC2)c(Cl)c1` [Example 16-23, (S)-3-[(S)-(2-Chloro-4-methylphenoxy)cyclopropylmethyl]pyrrolidine], for which the Ki on hSERT [1] and on hNET [4] was at most 10 nM each time. The IC50 on hNET [2] and at hSERT [3] was at most 10 nM throughout.
Take `CC(C)CC(Oc1ccc(C(F)(F)F)cc1)C1CCNC1` (centres unmarked) [Example 10-15, 3-[3-Methyl-1-(4-trifluoromethylphenoxy)butyl]pyrrolidine]: the Ki on hSERT [1] and at hNET [4] was at most 10 nM each time. Moreover, the IC50 on hNET [2] is at most 100 nM; on hSERT [3], at most 10 nM.
With `CC(C)CC(Oc1ccc(Cl)c(F)c1)C1CCNC1` (centres unmarked) [Example 10-70, 3-[1-(4-Chloro-3-fluorophenoxy)-3-methylbutyl]pyrrolidine], the inhibition constant Ki at hSERT [1] and at hNET [4] was at most 10 nM each time. The IC50 at hNET [2] and on hSERT [3] was at most 10 nM in each case.
Turning to `CC[C@H](Oc1cc(Cl)cc(Cl)c1)[C@H]1CCNC1` [Example 2-18, (S)-3-[(S)-1-(3,5-Dichlorophenoxy)propyl]pyrrolidine], the inhibition constant Ki at hSERT [1] was at most 10 nM; on hNET [4], at most 100 nM. The IC50 at hNET [2] and at hSERT [3] was at most 100 nM in each case.
Turning to `CCCC[C@@H](Oc1c(Cl)cccc1Cl)[C@H]1CCNC1` [Example 8-12, (S)-3-[(R)-1-(2,6-Dichlorophenoxy)pentyl]pyrrolidine], the Ki at hSERT [1] and on hNET [4] was at most 10 nM throughout. For the same molecule, the IC50 is at most 10 nM on hNET [2] and at most 100 nM at hSERT [3].
With `C=CC[C@H](Oc1cccc(Cl)c1C)[C@H]1CCNC1` [Example 24, (S)-3-[(S)-1-(3-Chloro-2-methylphenoxy)but-3-enyl]-pyrrolidine], the inhibition constant Ki at hSERT [1] and at hNET [4] was at most 10 nM throughout. Besides, the IC50 at hNET [2] and on hSERT [3] was at most 10 nM throughout.
Take `CC[C@@H](Oc1cccc2ccccc12)[C@H]1CCNC1` [Example 14-1, (S)-3-[(R)-1-(Naphthalen-1-yloxy)propyl]pyrrolidine]: the Ki on hSERT [1] and at hNET [4] was at most 10 nM throughout. The IC50 at hNET [2] and at hSERT [3] was at most 10 nM each time.
Take `CC[C@H](Oc1c(Cl)ccc(Cl)c1Cl)[C@H]1CCNC1` [Example 2-37, (S)-3-[(S)-1-(2,3,6-Trichlorophenoxy)propyl]pyrrolidine]: the Ki at hSERT [1] and on hNET [4] was at most 10 nM in each case. Besides, the IC50 on hNET [2] was at most 10 nM; at hSERT [3], at most 100 nM.
For `CC(C)[C@H](Oc1c(F)cc(Cl)cc1Cl)[C@H]1CCNC1` [Example 6-30, (S)-3-[(S)-1-(2,4-Dichloro-6-fluorophenoxy)-2-methylpropyl]pyrrolidine], the inhibition constant Ki at hSERT [1] and on hNET [4] was at most 10 nM each time. The IC50 at hNET [2] and at hSERT [3] was at most 10 nM each time.
For `CC(C)C[C@@H](Oc1cccc(F)c1Cl)[C@H]1CCNC1` [Example 10-27, (S)-3-[(R)-1-(2-Chloro-3-fluorophenoxy)-3-methylbutyl]pyrrolidine], the Ki on hSERT [1] and at hNET [4] was at most 10 nM each time. Moreover, the IC50 at hNET [2] and at hSERT [3] was at most 10 nM in each case.
`CC[C@H](Oc1ccc(Cl)c(F)c1)[C@H]1CCNC1` [Example 2-5, (S)-3-[(S)-1-(4-Chloro-3-fluorophenoxy)propyl]pyrrolidine]: the Ki on hSERT [1] and at hNET [4] was at most 10 nM in each case. In addition, the IC50 at hNET [2] and at hSERT [3] was at most 10 nM throughout.
Consider `CC[C@H](Oc1cccc(Cl)c1)[C@H]1CCNC1` [Example 2-1, (S)-3-[(S)-1-(3-Chlorophenoxy)propyl]pyrrolidine], for which the values for the inhibition constant (Ki) at hSERT [1] and on hNET [4] were at most 100 nM and at most 10 nM, respectively. The IC50 on hNET [2] is at most 10 nM; at hSERT [3] it was at most 100 nM.
Regarding `Cc1cc(Cl)ccc1O[C@@H](C1CC1)[C@H]1CCNC1` [Example 16-29, (S)-3-[(S)-(4-Chloro-2-methylphenoxy)cyclopropylmethyl]pyrrolidine], the Ki at hSERT [1] and at hNET [4] was at most 10 nM each time. Further, the IC50 at hNET [2] and at hSERT [3] was at most 10 nM throughout.
Turning to `Fc1cc(Cl)cc(F)c1O[C@@H](C1CC1)[C@H]1CCNC1` [Example 16-79, (S)-3-[(S)-(4-Chloro-2,6-difluorophenoxy)cyclopropylmethyl]pyrrolidine], the inhibitory constant (Ki) on hSERT [1] and on hNET [4] was at most 10 nM in each case. Besides, the IC50 at hNET [2] and at hSERT [3] was at most 10 nM in each case.
With `Fc1cc(Cl)cc(Cl)c1O[C@H](C1CC1)[C@H]1CCNC1` [Example 16-76, (S)-3-[(R)cyclopropyl-(2,4-dichloro-6-fluorophenoxy)methyl]pyrrolidine], the Ki on hSERT [1] and on hNET [4] was at most 10 nM throughout. The IC50 on hNET [2] and on hSERT [3] was at most 10 nM each time.
For the molecule `Fc1cccc(O[C@H](C2CC2)[C@H]2CCNC2)c1Cl` [Example 16-10, (S)-3-[(R)-(2-Chloro-3-fluorophenoxy)cyclopropylmethyl]pyrrolidine], the Ki at hSERT [1] and on hNET [4] was at most 10 nM in each case. Besides, the IC50 on hNET [2] and on hSERT [3] was at most 100 nM throughout.
As for `CC(C)[C@H](Oc1c(F)ccc(Cl)c1Cl)[C@H]1CCNC1` [Example 6-34, (S)-3-[(S)-1-(2,3-Dichloro-6-fluorophenoxy)-2-methylpropyl]pyrrolidine], the inhibition constant Ki at hSERT [1] and at hNET [4] was at most 10 nM each time. The IC50 at hNET [2] and on hSERT [3] was at most 10 nM each time.
In the case of `CC(C)C(Oc1ccc(Cl)cc1)C1CCNC1` (centres unmarked) [Example 6-74, 3-[1-(4-Chlorophenoxy)-2-methylpropyl]pyrrolidine], the inhibition constant Ki at hSERT [1] and on hNET [4] was at most 10 nM in each case. Besides, the IC50 on hNET [2] and on hSERT [3] was at most 10 nM in each case.
`CC(C)CC(Oc1c(Cl)c(F)cc(F)c1Cl)C1CCNC1` (centres unmarked) [Example 10-84, 3-[1-(2,6-Dichloro-3,5-difluorophenoxy)-3-methylbutyl]pyrrolidine]: the Ki on hSERT [1] and on hNET [4] was at most 10 nM in each case. The IC50 on hNET [2] and at hSERT [3] was at most 10 nM throughout.
For the molecule `CC(C)CC(Oc1ccc(Cl)cc1)C1CCNC1` (centres unmarked) [Example 10-10, 3-[1-(4-Chlorophenoxy)-3-methylbutyl]pyrrolidine], the Ki on hSERT [1] and on hNET [4] was at most 10 nM in each case. Further, the IC50 on hNET [2] and at hSERT [3] was at most 10 nM throughout.

The values above are taken from patent US7994209B2, “3-phenoxymethylpyrrolidine compounds” (Theravance, Inc., priority 2009, dated 2011).
